Earlier results, collected in patent US7618976B2, “Methods for the production of sildenafil base and citrate salt” (Teva Pharmaceutical Industries Ltd, priority 2004, dated 2009).

Tested on: isolated human corpus cavernosum

For `CCCc1nn(C)c2c(=O)[nH]c(-c3cc(S(=O)(=O)N4CCN(C)CC4)ccc3OCC)nc12` [Sildenafil], the “direct relaxant effect on isolated human corpus cavernosum” value is listed as “no direct relaxant effect”.
